Columns and labels:
[1] = system: long-term potentiation (LTP) in the primary visual cortex; assay: long term potentiation in primary visual cortex slices; design: species or system rat
Method: Long Term Potentiation (LTP) in primary visual cortex has been used as a cellular model for visual cortex plasticity and has functional consequences on visual evoked responses. NMDA receptors play a critical role in visual cortex LTP induction.
Following decapitation of the rat, the brain was rapidly removed and immersed in ice-cold artificial cerebrospinal fluid (ACSF) containing 124 mM NaCl, 3 mM KCl, 1.25 mM KH2PO4, 3.4 mM CaCl2, 2.5 mM MgSO4, 26 mM NaHCO3, and 10 mM D-glucose. A block of visual cortex was created by removing the frontal ⅔ portion of the brain and the cerebellum. Coronal visual cortex slices of 375 μm were prepared from adult Sprague Dawley (SD) rats using a vibratome (VT 1000 S; Leica). The slices were maintained in an interface recording chamber perfused with preheated ACSF. Slices were continuously perfused with this solution at a rate of 1.00-1.50 ml/min while the surface of the slices was exposed to warm, humidified 95% O2/5% CO2 and maintained at 31±1° C. Visual cortex slices were allowed to recover for 1 hr before recording began. […] This was repeated 2 additional times with a 1 minute intertrain interval, and the level of LTP was recorded for at least 30 min. Changes in amplitude of the synaptic response were used to measure the extent of LTP because it was determined to be the more consistent parameter than the slope of the response. […]

[2] = system: amphetamine-induced hyperlocomotion in mice; assay: amphetamine induced hyperactivity; type: in vivo; conditions: systemic administration, amphetamine 2 mg/kg s.c.
Method: C57B/6 male mice (n=5-10/group) were placed in an open field apparatus and their activity was measured for 30 minutes. At 30 minutes, they received a vehicle injection or injection of test compound followed by an injection of amphetamine (2 mg/kg, s.c.) at minute 45. Their activity levels were subsequently measured for another 1 hour post-injection. Total activity for each 5 minute bin (21 total bins) was added to establish the activity curve over the 105 minute testing.

[3] = target: T1, human ASCT2 (Homo sapiens, UniProt Q15758); assay: transport into HEK cells expressing ASCT2; type: cell-based
T1 construct: expressed in transfected cells; host or cells: HEK (human embryonic kidney) cells
T1 sequence (Q15758 1-541): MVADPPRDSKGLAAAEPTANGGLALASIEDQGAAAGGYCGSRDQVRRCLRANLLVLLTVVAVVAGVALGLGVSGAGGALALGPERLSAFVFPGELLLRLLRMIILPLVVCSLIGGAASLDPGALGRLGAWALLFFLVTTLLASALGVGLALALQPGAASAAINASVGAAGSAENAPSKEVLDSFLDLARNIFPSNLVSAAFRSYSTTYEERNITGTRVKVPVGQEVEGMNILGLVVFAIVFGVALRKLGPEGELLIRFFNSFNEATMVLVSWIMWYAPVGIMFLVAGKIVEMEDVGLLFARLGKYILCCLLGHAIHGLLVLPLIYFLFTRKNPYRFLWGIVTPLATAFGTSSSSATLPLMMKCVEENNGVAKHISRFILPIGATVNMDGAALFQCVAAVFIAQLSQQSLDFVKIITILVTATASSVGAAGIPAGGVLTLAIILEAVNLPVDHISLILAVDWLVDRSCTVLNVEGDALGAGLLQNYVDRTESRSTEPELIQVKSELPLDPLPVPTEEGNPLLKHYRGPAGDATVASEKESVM
Method: (§1) Cell-based assays: the transport of [^3H]L- or D-serine was measured in primary cultures of rat hippocampal astrocytes or in human embryonic kidney (HEK) cells expressing ASCT transporter sub-types. For the astrocyte assays, cells were plated on either 24- or 96-well plates at a density of 50,000 cells per well. For the HEK assays, cells were plated on coated 96-well plates at a density of 80,000 cells/well. Assays were conducted in duplicate at room temperature in assay buffer consisting of: NaCl: 150 mM, KCl: 2 mM; MgCl2: 1 mM; CaCl2: 1 mM; HEPES: Tris buffer: 10 mM, pH7.4. To assess the sodium-dependence of transport, NaCl was replaced in the assay buffer by equimolar choline chloride. Following aspiration of growth medium and 2 washes with assay buffer, cells were incubated with [^3H]L- or D-serine at a final concentration of 1 μM for 5 min (astrocytes) or 1 min (HEK cells), after which the incubation medium was aspirated and the cells washed twice with ice-cold assay buffer. Cells containing radiolabel were solubilized in 100 μl of 1% Triton-X100 and an aliquot counted in a beta counter. IC50 values were determined over a range of at least 6 concentrations and derived from curve-fitting algorithms available in GraphPad Prism 4.

[4] = target: T2, human ASCT1 (Homo sapiens, UniProt P43007); assay: transport into HEK cells expressing ASCT1; type: cell-based
T2 construct: expressed in transfected cells; host or cells: HEK (human embryonic kidney) cells
T2 sequence (P43007 1-532): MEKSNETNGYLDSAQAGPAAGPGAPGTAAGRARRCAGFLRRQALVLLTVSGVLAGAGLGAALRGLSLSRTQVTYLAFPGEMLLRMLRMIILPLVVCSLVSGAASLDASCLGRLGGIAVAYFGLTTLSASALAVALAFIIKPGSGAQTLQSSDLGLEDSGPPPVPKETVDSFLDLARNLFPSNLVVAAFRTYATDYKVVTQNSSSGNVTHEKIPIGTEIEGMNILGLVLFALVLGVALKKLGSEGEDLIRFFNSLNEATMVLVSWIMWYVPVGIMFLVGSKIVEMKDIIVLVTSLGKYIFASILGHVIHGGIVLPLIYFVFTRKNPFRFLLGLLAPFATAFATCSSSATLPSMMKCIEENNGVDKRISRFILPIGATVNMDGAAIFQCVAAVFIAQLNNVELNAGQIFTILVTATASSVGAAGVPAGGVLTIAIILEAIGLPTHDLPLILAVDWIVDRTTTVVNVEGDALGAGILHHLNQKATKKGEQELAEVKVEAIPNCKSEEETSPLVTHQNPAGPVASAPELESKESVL
Method: as §1

SMILES	effect on LTP with D-AAO in the perfusion medium ([1]; 0.2 unit/ml DAAO)	effect on LTP evoked by theta burst stimulation in visual cortex slice ([1]; rat visual cortex slice)	effect on amphetamine-induced hyperactivity/hyperlocomotion [2]	inhibition of [3H]L-serine transport in ASCT2-expressing HEK cells [3]	inhibition of [3H]L-serine transport in ASCT1-expressing HEK cells [4]	transport of [3H]D-serine into ASCT1-expressing HEK cells (substrate) ([4]; with and without extracellular sodium)
N[C@H](C(=O)O)c1ccc(O)cc1 [L-4-hydroxyphenylglycine]	completely prevented	enhanced LTP in a concentration-dependent manner	reduced amphetamine-induced hyperactivity in a dose-dependent manner			
N[C@H](CO)C(=O)O [D-serine]				completely inhibited	completely inhibited	transported into ASCT1-expressing HEK cells in a sodium-dependent manner
